How the values were obtained:
[1] = Dynamic vapor sorption/desorption (DVS); type: physicochemical; details: for hygroscopicity: DVS plot
[2] = Relative thermodynamic stability of the forms from crystal density, DSC melt onset and heat of fusion; type: physicochemical; details: suggested by higher crystal density and melt onset (with higher heat of fusion)
Procedure: A tau lag adjustment is performed with indium, tin, and zinc. […] The adjustment is then verified with octane, phenyl salicylate, indium, tin, and zinc. […] A weighed aluminum pan configured as the sample pan was placed on the […] side of the cell.

[3] = test system: lipid biosynthesis; cholesterol secretion and degradation; details: shown previously; cited from earlier work

SMILES: CC(C)CCC[C@@H](C)[C@H]1CC[C@H]2[C@@H]3CC=C4C[C@@H](S)CC[C@]4(C)[C@H]3CC[C@]12C [crystalline thiocholesterol Form A]
- weight change during the DVS cycle ([1]; 5% to 95% RH, sorption and desorption, FIG. 6): 0.25%
- hygroscopicity ([1]; FIG. 6): low hygroscopicity
- hygroscopicity ([1]; FIG. 6, listed as Crystalline thiocholesterol Form A): non-hygroscopic
- solid form of material recovered from the DVS experiment (x-ray powder diffraction) ([1]; after DVS cycle 5% to 95% RH): identified as crystalline thiocholesterol Form A
- thermodynamic stability relative to another form [2]: more thermodynamically stable than Crystalline Thiocholesterol Form B

SMILES: CC(C)CCC[C@@H](C)[C@H]1CC[C@H]2[C@@H]3CC=C4C[C@@H](S)CC[C@]4(C)[C@H]3CC[C@]12C [Thiocholesterol, (3 S,8S,9S,10R,13R,14S,17R)-17-[(1R)-1,5-dimethylhexyl]-10,13-dimethyl-2,3,4,7,8,9,11,12,14,15,16,17-dodecahydro-1H-cyclopenta[a] phenanthrene-3-thiol]
- cholesterol secretion and degradation [3]: increases
- lipid biosynthesis [3]: decreases

— patent publication US20230365618A1, “CRYSTALLINE THIOCHOLESTEROL” (Durect Corporation, priority 2020, published 2023)
